Key:
Type in all cases: functional
Medicago polymorpha [1] = assay: Herbicidal activity against Medicago polymorpha infested wheat field assessed as weed dry weight at 60 g/ha applied at 32 to 35 days after sowing through sprayer measured 100 days after sowing (reference value: 313.7 g/m2)
Phalaris minor [2] = assay: Herbicidal activity against isoproturon-resistant Phalaris minor infested wheat field assessed as wheat yield at 60 g/ha applied at 35 days after sowing through sprayer measured 95 days after sowing (reference value: 3.05 t/ha)
Phalaris minor [3] = assay: Herbicidal activity against isoproturon-resistant Phalaris minor infested wheat field assessed as weed dry weight at 60 g/ha applied at 35 days after sowing through sprayer measured 95 days after sowing (reference value: 213.0 g/m2)
Phalaris minor [4] = assay: Herbicidal activity against isoproturon-resistant Phalaris minor infested wheat field assessed as wheat yield at 60 g/ha applied at 32 to 35 days after sowing through sprayer (reference value: 3.41 t/ha)
Melilotus albus [5] = assay: Herbicidal activity against Melilotus albus infested wheat field assessed as weed dry weight at 60 g/ha applied at 32 to 35 days after sowing through sprayer measured 100 days after sowing (reference value: 313.7 g/m2)
Lepidium didymum [6] = assay: Herbicidal activity against Lepidium didymum infested wheat field assessed as weed dry weight at 60 g/ha applied at 32 to 35 days after sowing through sprayer measured 100 days after sowing (reference value: 313.7 g/m2)
Phalaris minor [7] = assay: Herbicidal activity against isoproturon-resistant Phalaris minor infested wheat field assessed as weed dry weight at 60 g/ha applied at 32 to 35 days after sowing through sprayer measured 100 days after sowing (reference value: 313.7 g/m2)
Medicago polymorpha [8] = assay: Herbicidal activity against Medicago polymorpha infested wheat field assessed as weed dry weight at 120 g/ha applied at 32 to 35 days after sowing through sprayer measured 100 days after sowing (reference value: 313.7 g/m2)
Phalaris minor [9] = assay: Herbicidal activity against isoproturon-resistant Phalaris minor infested wheat field assessed as wheat yield at 120 g/ha applied at 32 to 35 days after sowing through sprayer (reference value: 3.41 t/ha)
Melilotus albus [10] = assay: Herbicidal activity against Melilotus albus infested wheat field assessed as weed dry weight at 120 g/ha applied at 32 to 35 days after sowing through sprayer measured 100 days after sowing (reference value: 313.7 g/m2)
Phalaris minor [11] = assay: Herbicidal activity against isoproturon-resistant Phalaris minor infested wheat field assessed as weed dry weight at 120 g/ha applied at 32 to 35 days after sowing through sprayer measured 100 days after sowing (reference value: 313.7 g/m2)
Lepidium didymum [12] = assay: Herbicidal activity against Lepidium didymum infested wheat field assessed as weed dry weight at 120 g/ha applied at 32 to 35 days after sowing through sprayer measured 100 days after sowing (reference value: 313.7 g/m2)
Melilotus albus [13] = assay: Herbicidal activity against Melilotus albus infested wheat field assessed as weed dry weight at 1000 g/ha applied at 32 to 35 days after sowing through sprayer measured 100 days after sowing (reference value: 313.7 g/m2)
Phalaris minor [14] = assay: Post-emergence herbicidal activity against isoproturon-resistant Phalaris minor infested wheat field assessed as reduction in weed dry weight at 1000 g/ha applied on 1 after sowing through sprayer measured 120 days after sowing relative to control; set-up: scale not given: the % may be the effect or the level left
Phalaris minor [15] = assay: Herbicidal activity against isoproturon-resistant Phalaris minor infested wheat field assessed as weed dry weight at 1000 g/ha applied at 32 to 35 days after sowing through sprayer measured 100 days after sowing (reference value: 313.7 g/m2)
Medicago polymorpha [16] = assay: Herbicidal activity against Medicago polymorpha infested wheat field assessed as weed dry weight at 1000 g/ha applied at 32 to 35 days after sowing through sprayer measured 100 days after sowing (reference value: 313.7 g/m2)
Lepidium didymum [17] = assay: Herbicidal activity against Lepidium didymum infested wheat field assessed as weed dry weight at 1000 g/ha applied at 32 to 35 days after sowing through sprayer measured 100 days after sowing (reference value: 313.7 g/m2)
Phalaris minor [18] = assay: Herbicidal activity against isoproturon-resistant Phalaris minor infested wheat field assessed as wheat yield at 1000 g/ha applied at 32 to 35 days after sowing through sprayer (reference value: 3.41 t/ha)
Phalaris minor [19] = assay: Herbicidal activity against isoproturon-resistant Phalaris minor infested wheat field assessed as weed dry weight at 1000 g/ha applied at 35 days after sowing through sprayer measured 95 days after sowing (reference value: 213.0 g/m2)
Phalaris minor [20] = assay: Herbicidal activity against isoproturon-resistant Phalaris minor infested wheat field assessed as wheat yield at 1000 g/ha applied at 35 days after sowing through sprayer measured 95 days after sowing (reference value: 3.05 t/ha)
Phalaris minor [21] = assay: Post-emergence herbicidal activity against isoproturon-resistant Phalaris minor infested wheat field assessed as reduction in weed dry weight at 280 g/ha applied on 1 after sowing through sprayer measured 120 days after sowing relative to control; set-up: scale not given: the % may be the effect or the level left
Phalaris minor [22] = assay: Pre-emergence herbicidal activity against isoproturon-resistant Phalaris minor infested wheat field assessed as reduction in weed dry weight at 1250 g/ha applied on 1 after sowing through sprayer measured 120 days after sowing relative to control; set-up: scale not given: the % may be the effect or the level left
Phalaris minor [23] = assay: Herbicidal activity against isoproturon-resistant Phalaris minor infested wheat field assessed as wheat yield at 30 g/ha applied at 35 days after sowing through sprayer in presence of 0.5 % surfactant A 12127 measured 95 days after sowing (reference value: 3.05 t/ha)
Phalaris minor [24] = assay: Herbicidal activity against isoproturon-resistant Phalaris minor infested wheat field assessed as weed dry weight at 30 g/ha applied at 35 days after sowing through sprayer in presence of 0.5 % surfactant A 12127 measured 95 days after sowing (reference value: 213.0 g/m2)
Phalaris minor [25] = assay: Herbicidal activity against isoproturon-resistant Phalaris minor infested wheat field assessed as weed dry weight at 35 g/ha applied at 35 days after sowing through sprayer in presence of 0.5 % surfactant A 12127 measured 95 days after sowing (reference value: 213.0 g/m2)
Phalaris minor [26] = assay: Herbicidal activity against isoproturon-resistant Phalaris minor infested wheat field assessed as wheat yield at 35 g/ha applied at 35 days after sowing through sprayer in presence of 0.5 % surfactant A 12127 measured 95 days after sowing (reference value: 3.05 t/ha)
Lepidium didymum [27] = assay: Herbicidal activity against Lepidium didymum infested wheat field assessed as weed dry weight at 120 g/ha applied at 32 to 35 days after sowing through sprayer in presence of surfactant MON 0818 measured 100 days after sowing (reference value: 313.7 g/m2)
Phalaris minor [28] = assay: Herbicidal activity against isoproturon-resistant Phalaris minor infested wheat field assessed as weed dry weight at 120 g/ha applied at 32 to 35 days after sowing through sprayer in presence of surfactant MON 0818 measured 100 days after sowing (reference value: 313.7 g/m2)
Medicago polymorpha [29] = assay: Herbicidal activity against Medicago polymorpha infested wheat field assessed as weed dry weight at 120 g/ha applied at 32 to 35 days after sowing through sprayer in presence of surfactant MON 0818 measured 100 days after sowing (reference value: 313.7 g/m2)
Melilotus albus [30] = assay: Herbicidal activity against Melilotus albus infested wheat field assessed as weed dry weight at 120 g/ha applied at 32 to 35 days after sowing through sprayer in presence of surfactant MON 0818 measured 100 days after sowing (reference value: 313.7 g/m2)
Phalaris minor [31] = assay: Herbicidal activity against isoproturon-resistant Phalaris minor infested wheat field assessed as wheat yield at 120 g/ha applied at 32 to 35 days after sowing through sprayer in presence of surfactant MON 0818 (reference value: 3.41 t/ha)
Phalaris minor [32] = assay: Post-emergence herbicidal activity against isoproturon-resistant Phalaris minor infested wheat field assessed as reduction in weed dry weight at 25 g/ha applied on 1 after sowing through sprayer measured 120 days after sowing relative to control; set-up: scale not given: the % may be the effect or the level left

SMILES: C[C@@H](Oc1ccc(Oc2ncc(Cl)cc2F)cc1)C(=O)O [CLODINAFOP]
- Activity (Medicago polymorpha [1]): 38.3 g/m2
- Crop_yield (Phalaris minor [2]): 5.42 tons/ha
- Activity (Phalaris minor [3]): 0.6 g/m2
- Crop_yield (Phalaris minor [4]): 6.01 tons/ha
- Activity (Melilotus albus [5]): 38.3 g/m2
- Activity (Lepidium didymum [6]): 38.3 g/m2
- Activity (Phalaris minor [7]): 0.6 g/m2

SMILES: C[C@@H](Oc1ccc(Oc2nc3ccc(Cl)cc3o2)cc1)C(=O)O [FENOXAPROP-P]
- Activity (Medicago polymorpha [8]): 25.2 g/m2
- Crop_yield (Phalaris minor [9]): 5.96 tons/ha
- Activity (Melilotus albus [10]): 25.2 g/m2
- Activity (Phalaris minor [11]): 5.9 g/m2
- Activity (Lepidium didymum [12]): 25.2 g/m2

SMILES: CC(C)c1ccc(NC(=O)N(C)C)cc1 [ISOPROTURON]
- Activity (Melilotus albus [13]): 3 g/m2
- Activity (Phalaris minor [14]): 26.2%
- Activity (Phalaris minor [15]): 242 g/m2
- Activity (Medicago polymorpha [16]): 3 g/m2
- Activity (Lepidium didymum [17]): 3 g/m2
- Crop_yield (Phalaris minor [18]): 3.99 tons/ha
- Activity (Phalaris minor [19]): 179.2 g/m2
- Crop_yield (Phalaris minor [20]): 3.61 tons/ha

SMILES: CSc1nnc(C(C)(C)C)c(=O)n1N [METRIBUZIN]
- Activity (Phalaris minor [21]): 94.7%

SMILES: CCC(CC)Nc1c([N+](=O)[O-])cc(C)c(C)c1[N+](=O)[O-] [PENDIMETHALIN]
- Activity (Phalaris minor [22]): 88.5%

SMILES: CCc1cc(C)cc(CC)c1-c1c(OC(=O)C(C)(C)C)n2n(c1=O)CCOCC2 [PINOXADEN]
- Crop_yield (Phalaris minor [23]): 5.44 tons/ha
- Activity (Phalaris minor [24]): 2.3 g/m2
- Activity (Phalaris minor [25]): 0.3 g/m2
- Crop_yield (Phalaris minor [26]): 5.38 tons/ha

SMILES: CCS(=O)(=O)c1nc2ccccn2c1S(=O)(=O)NC(=O)Nc1nc(OC)cc(OC)n1 [SULFOSULFURON]
- Activity (Lepidium didymum [27]): 1.8 g/m2
- Activity (Phalaris minor [28]): 0.3 g/m2
- Activity (Medicago polymorpha [29]): 1.8 g/m2
- Activity (Melilotus albus [30]): 1.8 g/m2
- Crop_yield (Phalaris minor [31]): 6.2 tons/ha
- Activity (Phalaris minor [32]): 93.8%

— ChEMBL document CHEMBL3045527, “Herbicides for control of isoproturon-resistant Littleseed Canarygrass (Phalaris minor) in wheat” (2008)
